Data as given in ChEMBL document CHEMBL1201862, “PubChem BioAssay data set” (2004).
Activity calls are given as the source filed them.

Columns and labels:
[1] = target: T1, X-box-binding protein 1 (Homo sapiens, UniProt P17861); assay type: functional, Cricetulus griseus;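 note: confirmatory dose-response counter-screen serving a CHOP assay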
T1 sequence (P17861 whole entry): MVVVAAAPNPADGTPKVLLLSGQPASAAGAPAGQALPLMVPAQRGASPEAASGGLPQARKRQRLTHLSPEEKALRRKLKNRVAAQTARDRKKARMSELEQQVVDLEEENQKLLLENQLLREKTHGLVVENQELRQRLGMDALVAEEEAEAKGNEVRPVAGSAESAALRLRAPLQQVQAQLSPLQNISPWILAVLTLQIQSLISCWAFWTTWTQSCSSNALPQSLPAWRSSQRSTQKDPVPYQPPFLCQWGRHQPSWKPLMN

[2] = target: T2, Protein RecA (Mycobacterium tuberculosis, UniProt P9WHJ3); assay: Fluorescence Cell-Free Homogeneous Dose Retest to Identify Inhibitors of RecA-Intein Splicing Activity. [Related pubchem assays (depositor defined):AID2097, AID2223, AID489010, AID492950]; assay type: functional
T2 sequence (P9WHJ3 whole entry): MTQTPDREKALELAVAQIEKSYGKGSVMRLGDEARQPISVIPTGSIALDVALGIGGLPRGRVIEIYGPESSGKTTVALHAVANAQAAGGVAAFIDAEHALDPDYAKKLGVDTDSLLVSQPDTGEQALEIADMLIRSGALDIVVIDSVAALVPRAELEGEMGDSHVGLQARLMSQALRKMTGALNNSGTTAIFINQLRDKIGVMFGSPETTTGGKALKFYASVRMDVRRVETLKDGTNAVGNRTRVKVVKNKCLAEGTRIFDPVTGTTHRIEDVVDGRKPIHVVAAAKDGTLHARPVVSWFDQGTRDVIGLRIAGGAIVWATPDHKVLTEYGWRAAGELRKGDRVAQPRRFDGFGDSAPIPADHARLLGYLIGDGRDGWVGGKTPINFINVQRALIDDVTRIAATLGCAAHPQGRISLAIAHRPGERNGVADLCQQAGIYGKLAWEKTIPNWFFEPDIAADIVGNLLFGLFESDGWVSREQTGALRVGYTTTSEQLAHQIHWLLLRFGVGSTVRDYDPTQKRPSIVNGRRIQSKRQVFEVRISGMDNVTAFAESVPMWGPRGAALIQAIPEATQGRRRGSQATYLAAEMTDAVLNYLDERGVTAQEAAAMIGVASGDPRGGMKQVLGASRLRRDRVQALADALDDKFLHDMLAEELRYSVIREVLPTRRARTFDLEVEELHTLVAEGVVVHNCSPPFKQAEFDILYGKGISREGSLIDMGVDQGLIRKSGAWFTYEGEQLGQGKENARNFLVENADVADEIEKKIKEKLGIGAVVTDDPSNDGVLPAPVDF

[3] = tested on: Streptococcus; assay: Group A Streptococcus viability loss, dose response, counter-screen for streptokinase expression inhibitor project, luminescence, BacTiterGlo (AID 1915); assay type: functional, organism-based;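 note: potency for reduction of bacterial viability or growth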
[4] = target: SUMO E1/E2 (Homo sapiens, UniProt P63279+Q9UBE0+Q9UBT2); assay: SAR analysis of SUMOylation using HTRF in an in-Vitro dose response assay. [Related pubchem assays (depositor defined):AID2006, AID2011, AID2018, AID2069, AID2658]; assay type: functional
Sequence of SUMO E1/E2 (Q9UBE0 whole entry): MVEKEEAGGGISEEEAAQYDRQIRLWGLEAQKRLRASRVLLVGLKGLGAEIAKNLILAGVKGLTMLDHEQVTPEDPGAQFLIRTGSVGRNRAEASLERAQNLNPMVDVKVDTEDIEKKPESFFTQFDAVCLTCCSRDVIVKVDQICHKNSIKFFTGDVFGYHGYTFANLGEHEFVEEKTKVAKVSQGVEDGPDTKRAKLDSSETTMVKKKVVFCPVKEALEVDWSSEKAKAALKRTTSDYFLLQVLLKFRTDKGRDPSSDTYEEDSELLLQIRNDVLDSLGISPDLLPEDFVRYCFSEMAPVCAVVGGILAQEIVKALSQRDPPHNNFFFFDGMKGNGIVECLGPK
Sequence of SUMO E1/E2 (Q9UBT2 whole entry): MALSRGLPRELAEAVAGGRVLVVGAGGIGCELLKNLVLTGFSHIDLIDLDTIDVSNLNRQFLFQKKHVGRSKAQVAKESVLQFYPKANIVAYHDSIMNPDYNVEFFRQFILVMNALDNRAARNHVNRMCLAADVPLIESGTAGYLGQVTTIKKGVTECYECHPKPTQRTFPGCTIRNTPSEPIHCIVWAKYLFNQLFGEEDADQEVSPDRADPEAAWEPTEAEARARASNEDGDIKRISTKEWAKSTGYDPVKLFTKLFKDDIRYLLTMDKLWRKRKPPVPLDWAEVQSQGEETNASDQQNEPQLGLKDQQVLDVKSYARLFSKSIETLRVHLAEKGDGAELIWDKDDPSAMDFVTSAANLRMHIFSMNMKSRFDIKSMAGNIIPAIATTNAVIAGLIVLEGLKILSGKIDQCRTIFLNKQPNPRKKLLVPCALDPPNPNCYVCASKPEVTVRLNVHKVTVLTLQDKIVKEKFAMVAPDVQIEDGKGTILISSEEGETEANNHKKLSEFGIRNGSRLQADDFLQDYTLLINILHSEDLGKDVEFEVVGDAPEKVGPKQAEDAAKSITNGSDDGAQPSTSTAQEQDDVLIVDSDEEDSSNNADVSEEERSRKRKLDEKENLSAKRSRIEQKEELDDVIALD
Sequence of SUMO E1/E2 (P63279 whole entry): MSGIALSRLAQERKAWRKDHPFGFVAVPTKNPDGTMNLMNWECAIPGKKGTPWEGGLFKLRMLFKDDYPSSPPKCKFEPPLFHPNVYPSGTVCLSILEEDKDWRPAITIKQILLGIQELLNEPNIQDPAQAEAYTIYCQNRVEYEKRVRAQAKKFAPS

SMILES: CCCCn1c(NS(=O)(=O)c2ccccc2)c(S(=O)(=O)c2ccc(C)cc2)c2nc3ccccc3nc21
- Absolute IC50 (XBP1) [1]: 10 µM
- EC50 [2]: 0.0801 µM (inconclusive)
- EC50 [3]: 14.1 µM (active)
- IC50 [4]: 4.2 µM (active)
